Measured values taken from US20240418701A1, “SINGLE MOLECULE IDEN[…] A REACTIVE HETERO-NANOPORE” (priority 2021, published 2024).
“And” between values parts separate entries of the source, which are not always exact repeats. Equal values may be shown once.

Tests used:
octameric M2 MspA-D16H6 = target: T1, octameric M2 MspA-D16H6 (Mycolicibacterium smegmatis, UniProt A0QR29, D117N/D118N/D120N/D145R/D161R/E166K); assay: L-Sorbose sensing by octameric M2 MspA-D16H6 (control without PBA); type: binding, Mycobacterium smegmatis; settings: L-Sorbose 50 mM in cis, +160 mV
T1 construct: D16 (16 consecutive aspartic acids) (C); H6 (hexa-histidine) (C); made in house; host or cells: E. coli BL21 (DE3) pLysS, pET-30a(+)
Experimental: FIG. 11: L-Sorbose sensing by an octameric M2 MspA-D16H6. L-Sorbose sensing was performed with an octameric M2 MspA-D16H6 in a 1.5 M KCl, 10 mM MOPS, pH7.0 buffer. A +160 mV bias was continually applied.
L-Sorbose is a monosaccharide ketose. It exists in all living species, ranging from bacteria to human^50. The commercial production of vitamin C (ascorbic acid) often begins with L-Sorbose^51. To further verify the existence of a PBA in the lumen of the pore, MspA-PBA was used to sense L-Sorbose. The measurement was performed with a single MspA-PBA and a 1.5 M KCl, 10 mM MOPS, pH 7.0 buffer with the continuous application of a +160 m V bias. The addition of L-Sorbose to cis to a 10 mM final concentration resulted immediately in the consecutive appearance of long residing resistive pulse events (FIGS. 1d-1f, Supplementary Video 1). […] In this way, it was confirmed that the introduction of a PBA to the pore lumen is critical for the generation of saccharide sensing events.
The measurement device is composed of two custom-made polyformaldehyde chambers separated by a ˜20 μm-thick Teflon film with a drilled aperture (˜100 μm in diameter). Before the measurement, the aperture was first treated with 0.5% (v/v) hexadecane in pentane and set for evaporation of the pentane. […] All events were detected by the “single channel research” function in Clampfit 10.7. […]

[1] = target: T2, MspA-PBA (phenylboronic acid modified hetero-octameric (N90C)1(M2)7 MspA) (Mycolicibacterium smegmatis, UniProt A0QR29, D117C/D118N/D120N/D145R/D161R/E166K); assay: Single channel recording of L-Sorbose binding to MspA-PBA nanopore; set-up: species or system Mycobacterium smegmatis; settings: for 1/τoff Mean / 1/τon Mean / Amplitude of L-Sorbose events, Current, Mean: N=3
T2 construct: H6 (hexa-histidine) (C); 3-(maleimide) phenylboronic acid (MPBA) adduct on the thiol of Cys90; made in house; host or cells: E. coli BL21 (DE3) pLysS, co-expression from pETDuet-1

[2] = L-Sorbose 400 μM in cis, +160 mV
[3] = L-Sorbose 800 μM in cis, +160 mV
[4] = L-Sorbose 1200 μM in cis, +160 mV
[5] = L-Sorbose 1600 μM in cis, +160 mV
[6] = L-Sorbose 2000 μM in cis, +160 mV

T1 sequence (A0QR29 other isoform, or with tags, fused parts or gaps D117N/D118N/D120N/D145R/D161R/E166K): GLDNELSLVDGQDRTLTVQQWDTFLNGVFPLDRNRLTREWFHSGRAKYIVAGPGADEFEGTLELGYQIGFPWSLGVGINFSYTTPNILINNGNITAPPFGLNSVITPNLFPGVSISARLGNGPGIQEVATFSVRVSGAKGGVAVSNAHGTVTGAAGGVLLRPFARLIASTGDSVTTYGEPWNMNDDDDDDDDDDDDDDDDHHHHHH

O=C(CO)[C@@H](O)[C@H](O)[C@@H](O)CO [L-Sorbose, L-(−)-Sorbose]
resistive pulse events with M2 MspA (octameric M2 MspA-D16H6): failed to cause any resistive pulse events
Amplitude of L-Sorbose events, Current, Pore1 ([1]; 40 mV, L-Sorbose 5 mM in cis): 29.3 ± 0.0005 pA
Amplitude of L-Sorbose events, Current, Pore2 ([1]; 40 mV, L-Sorbose 5 mM in cis): 29.05 ± 0.0005 pA
Amplitude of L-Sorbose events, Current, Pore3 ([1]; 40 mV, L-Sorbose 5 mM in cis): 29.2 ± 0.002 pA
1/τoff Mean ([1]; 40 mV, L-Sorbose 5 mM in cis): 5.06E−04 ms^−1
1/τon Mean ([1]; 40 mV, L-Sorbose 5 mM in cis): 7.9E−04 ms^−1
Amplitude of L-Sorbose events, Current, Mean ([1]; 40 mV, L-Sorbose 5 mM in cis): 29.2 pA
Amplitude of L-Sorbose events, Current, Pore1 ([1]; 70 mV, L-Sorbose 5 mM in cis): 54.5 ± 0.010 pA
Amplitude of L-Sorbose events, Current, Pore2 ([1]; 70 mV, L-Sorbose 5 mM in cis): 52.7 ± 0.0008 pA
Amplitude of L-Sorbose events, Current, Pore3 ([1]; 70 mV, L-Sorbose 5 mM in cis): 52.5 ± 0.0008 pA
1/τoff Mean ([1]; 70 mV, L-Sorbose 5 mM in cis): 4.3E−04 ms^−1
1/τon Mean ([1]; 70 mV, L-Sorbose 5 mM in cis): 7.4E−04 ms^−1
Amplitude of L-Sorbose events, Current, Mean ([1]; 70 mV, L-Sorbose 5 mM in cis): 53.08 pA
Amplitude of L-Sorbose events, Current, Pore1 ([1]; 100 mV, L-Sorbose 5 mM in cis): 74.6 ± 0.002 pA
Amplitude of L-Sorbose events, Current, Pore2 ([1]; 100 mV, L-Sorbose 5 mM in cis): 73.2 ± 0.009 pA
Amplitude of L-Sorbose events, Current, Pore3 ([1]; 100 mV, L-Sorbose 5 mM in cis): 73.3 ± 0.002 pA
1/τoff Mean ([1]; 100 mV, L-Sorbose 5 mM in cis): 4.04E−04 ms^−1
1/τon Mean ([1]; 100 mV, L-Sorbose 5 mM in cis): 8.7E−04 ms^−1
Amplitude of L-Sorbose events, Current, Mean ([1]; 100 mV, L-Sorbose 5 mM in cis): 73.7 pA
Amplitude of L-Sorbose events, Current, Pore1 ([1]; 130 mV, L-Sorbose 5 mM in cis): 91.6 ± 0.003 pA
Amplitude of L-Sorbose events, Current, Pore2 ([1]; 130 mV, L-Sorbose 5 mM in cis): 90.3 ± 0.004 pA
Amplitude of L-Sorbose events, Current, Pore3 ([1]; 130 mV, L-Sorbose 5 mM in cis): 90.3 ± 0.004 pA
1/τoff Mean ([1]; 130 mV, L-Sorbose 5 mM in cis): 3.8E−04 ms^−1
1/τon Mean ([1]; 130 mV, L-Sorbose 5 mM in cis): 8.4E−04 ms^−1
Amplitude of L-Sorbose events, Current, Mean ([1]; 130 mV, L-Sorbose 5 mM in cis): 90.8 pA
Amplitude of L-Sorbose events, Current, Pore1 ([1]; 160 mV, L-Sorbose 5 mM in cis): 107.7 ± 0.005 pA
Amplitude of L-Sorbose events, Current, Pore2 ([1]; 160 mV, L-Sorbose 5 mM in cis): 104.9 ± 0.006 pA
Amplitude of L-Sorbose events, Current, Pore3 ([1]; 160 mV, L-Sorbose 5 mM in cis): 105.3 ± 0.006 pA
1/τoff Mean ([1]; 160 mV, L-Sorbose 5 mM in cis): 2.9E−04 ms^−1
1/τon Mean ([1]; 160 mV, L-Sorbose 5 mM in cis): 8.5E−04 ms^−1
Amplitude of L-Sorbose events, Current, Mean ([1]; 160 mV, L-Sorbose 5 mM in cis): 105.9 pA
Amplitude of L-Sorbose events, Current, Pore1 ([1]; 190 mV, L-Sorbose 5 mM in cis): 122.9 ± 0.007 pA
Amplitude of L-Sorbose events, Current, Pore2 ([1]; 190 mV, L-Sorbose 5 mM in cis): 116.7 ± 0.008 pA
Amplitude of L-Sorbose events, Current, Pore3 ([1]; 190 mV, L-Sorbose 5 mM in cis): 120.7 ± 0.010 pA
1/τoff Mean ([1]; 190 mV, L-Sorbose 5 mM in cis): 2.9E−04 ms^−1
1/τon Mean ([1]; 190 mV, L-Sorbose 5 mM in cis): 8.3E−04 ms^−1
Amplitude of L-Sorbose events, Current, Mean ([1]; 190 mV, L-Sorbose 5 mM in cis): 120.13 pA
Amplitude of L-Sorbose events, Current, Pore1 ([1]; 220 mV, L-Sorbose 5 mM in cis): 143.6 ± 0.02 pA
Amplitude of L-Sorbose events, Current, Pore2 ([1]; 220 mV, L-Sorbose 5 mM in cis): 132.9 ± 0.02 pA
Amplitude of L-Sorbose events, Current, Pore3 ([1]; 220 mV, L-Sorbose 5 mM in cis): 137.2 ± 0.013 pA
1/τoff Mean ([1]; 220 mV, L-Sorbose 5 mM in cis): 3.4E−04 ms^−1
1/τon Mean ([1]; 220 mV, L-Sorbose 5 mM in cis): 8.07E−04 ms^−1
Amplitude of L-Sorbose events, Current, Mean ([1]; 220 mV, L-Sorbose 5 mM in cis): 137.9 pA
blockage amplitude (ΔI) / current drop of L-Sorbose sensing events ([1]; +160 mV, L-Sorbose 10 mM in cis): ~100 pA and ~102 pA
1/τoff Mean [1, 2]: 2.9E−04 ms^−1
1/τon Mean [1, 2]: 5.10E−05 ms^−1
1/τoff Mean [1, 3]: 2.9E−04 ms^−1
1/τon Mean [1, 3]: 1.03E−04 ms^−1
1/τoff Mean [1, 4]: 3.08E−04 ms^−1
1/τon Mean [1, 4]: 1.7E−04 ms^−1
1/τoff Mean [1, 5]: 3.11E−04 ms^−1
1/τon Mean [1, 5]: 2.2E−04 ms^−1
1/τoff Mean [1, 6]: 2.9E−04 ms^−1
1/τon Mean [1, 6]: 3.07E−04 ms^−1
1/τoff Mean ([1]; −40 mV, L-Sorbose 5 mM in cis): 5.01E−04 ms^−1
1/τon Mean ([1]; −40 mV, L-Sorbose 5 mM in cis): 7.6E−04 ms^−1
